Measured values reported in patent US10633382B2, “Imidazopyrazinones, pyrazolopyrimidinones and pyrazolopyridinones as PDE1 inhibitors” (H. Lundbeck A/S, priority 2016, dated 2020).

Columns and labels:
Format in all cases: biochemical
[1] = molecular target: PDE9 (Homo sapiens, UniProt O76083); assay: PDE9 inhibition assay; settings: for inhibition at 10 µM / PDE9 Inhibition at 10 μM (%): 10 μM of inhibitor
Description: A PDE9 assay may for example, be performed as follows: The assay is performed in 60 μL samples containing a fixed amount of the relevant PDE enzyme (sufficient to convert 20-25% of the cyclic nucleotide substrate), a buffer (50 mM HEPES pH 7.6; 10 mM MgCl2; 0.02% Tween20), 0.1 mg/ml BSA, 225 pCi of ^3H-labelled cyclic nucleotide substrate, tritium labeled cAMP to a final concentration of 5 nM and varying amounts of inhibitors. Reactions are initiated by addition of the cyclic nucleotide substrate, and reactions are allowed to proceed for one hr at room temperature before being terminated through mixing with 15 μL 8 mg/mL yttrium silicate SPA beads (Amersham). The beads are allowed to settle for one hr in the dark before the plates are counted in a Wallac 1450 Microbeta counter. The measured signal can be converted to activity relative to an uninhibited control (100%) and IC50 values can be calculated using the Xlfit extension to EXCEL.
In the context of the present invention the assay was performed in 60 μL assay buffer (50 mM HEPES pH 7.6; 10 mM MgCl2; 0.02% Tween20) containing enough PDE9 to convert 20-25% of 10 nM ^3H-cAMP, and […] 10 μM of inhibitor. Following 1 hr incubation the reactions were terminated by addition of 15 μL 8 mg/mL yttrium silicate SPA beads (Amersham). The beads were allowed to settle for one hr in the dark before the plates were counted in a Wallac 1450 Microbeta counter.

[2] = molecular target: PDE1A (Homo sapiens, UniProt P54750); assay: PDE1 inhibition assay (PDE1A); settings: 15 nM tritium labelled cAMP, SPA
Chain of PDE1A (P54750 whole entry): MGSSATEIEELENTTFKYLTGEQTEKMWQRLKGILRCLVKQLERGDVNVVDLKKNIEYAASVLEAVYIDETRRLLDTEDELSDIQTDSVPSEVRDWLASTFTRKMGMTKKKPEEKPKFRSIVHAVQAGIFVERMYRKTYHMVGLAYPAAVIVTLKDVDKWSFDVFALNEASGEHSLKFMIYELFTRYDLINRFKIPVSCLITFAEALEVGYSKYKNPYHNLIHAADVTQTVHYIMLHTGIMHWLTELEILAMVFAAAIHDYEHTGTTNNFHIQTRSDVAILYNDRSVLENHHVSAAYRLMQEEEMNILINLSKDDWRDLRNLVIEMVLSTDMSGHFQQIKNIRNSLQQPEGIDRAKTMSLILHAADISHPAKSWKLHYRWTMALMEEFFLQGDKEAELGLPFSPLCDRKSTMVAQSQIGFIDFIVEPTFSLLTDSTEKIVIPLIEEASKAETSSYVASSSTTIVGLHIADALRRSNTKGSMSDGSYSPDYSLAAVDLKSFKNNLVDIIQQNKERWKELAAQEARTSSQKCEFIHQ
Description: (§1) PDE1A, PDE1B and PDE1C assays were performed as follows: the assays were performed in 60 μL samples containing a fixed amount of the PDE1 enzyme (sufficient to convert 20-25% of the cyclic nucleotide substrate), a buffer (50 mM HEPES (4-(2-hydroxyethyl)-1-piperazineethanesulfonic acid) pH 7.6; 10 mM MgCl2; 0.02% Tween20), 0.1 mg/ml BSA (bovine serum albumin), 15 nM tritium labelled cAMP and varying amounts of inhibitors. Reactions were initiated by addition of the cyclic nucleotide substrate, and reactions were allowed to proceed for 1 hr at room temperature before being terminated through mixing with 20 μL (0.2 mg) yttrium silicate SPA beads (PerkinElmer). The beads were allowed to settle for 1 hour in the dark before the plates were counted in a Wallac 1450 Microbeta counter. The measured signals were converted to activity relative to an uninhibited control (100%) and IC50 values were calculated using XlFit (model 205, IDBS).

[3] = molecular target: PDE1C (Homo sapiens, UniProt Q14123); assay: PDE1 inhibition assay (PDE1C); settings: 15 nM tritium labelled cAMP, SPA
Chain of PDE1C (Q14123 whole entry): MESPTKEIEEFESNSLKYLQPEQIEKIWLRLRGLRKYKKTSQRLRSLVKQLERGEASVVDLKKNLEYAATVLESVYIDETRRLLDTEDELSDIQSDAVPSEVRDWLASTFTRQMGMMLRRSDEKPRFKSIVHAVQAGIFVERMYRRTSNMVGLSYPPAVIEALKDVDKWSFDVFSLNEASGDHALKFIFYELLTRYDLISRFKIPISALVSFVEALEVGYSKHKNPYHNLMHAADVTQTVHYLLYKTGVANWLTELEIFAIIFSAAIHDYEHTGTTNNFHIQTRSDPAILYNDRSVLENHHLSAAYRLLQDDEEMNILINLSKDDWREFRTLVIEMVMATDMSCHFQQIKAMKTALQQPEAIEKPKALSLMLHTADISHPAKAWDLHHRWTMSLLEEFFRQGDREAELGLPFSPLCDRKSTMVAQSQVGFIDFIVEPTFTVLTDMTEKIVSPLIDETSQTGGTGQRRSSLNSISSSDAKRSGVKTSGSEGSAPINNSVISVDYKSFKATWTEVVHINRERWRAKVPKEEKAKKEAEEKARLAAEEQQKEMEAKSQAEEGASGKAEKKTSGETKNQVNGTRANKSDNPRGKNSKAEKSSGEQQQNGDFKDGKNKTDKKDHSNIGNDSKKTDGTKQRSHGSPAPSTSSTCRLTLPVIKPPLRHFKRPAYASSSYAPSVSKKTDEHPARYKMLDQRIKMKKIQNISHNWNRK
Description: as §1

[4] = molecular target: PDE1B (Homo sapiens, UniProt Q01064); assay: PDE1 inhibition assay (PDE1B); settings: 15 nM tritium labelled cAMP, SPA
Chain of PDE1B (Q01064 whole entry): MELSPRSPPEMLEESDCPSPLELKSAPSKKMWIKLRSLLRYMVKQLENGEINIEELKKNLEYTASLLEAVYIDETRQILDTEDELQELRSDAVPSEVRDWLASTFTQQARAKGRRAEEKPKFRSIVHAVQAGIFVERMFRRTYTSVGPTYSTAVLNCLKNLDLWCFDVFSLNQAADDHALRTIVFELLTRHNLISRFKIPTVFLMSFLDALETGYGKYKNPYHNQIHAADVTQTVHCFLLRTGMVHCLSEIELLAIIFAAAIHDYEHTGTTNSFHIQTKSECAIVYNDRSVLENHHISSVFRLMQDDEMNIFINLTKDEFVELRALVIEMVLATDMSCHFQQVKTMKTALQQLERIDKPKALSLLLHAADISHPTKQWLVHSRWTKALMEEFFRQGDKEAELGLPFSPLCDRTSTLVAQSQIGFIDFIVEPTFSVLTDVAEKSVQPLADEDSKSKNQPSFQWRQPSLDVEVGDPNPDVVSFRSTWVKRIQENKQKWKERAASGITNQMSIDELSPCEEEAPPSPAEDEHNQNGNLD
Description: as §1

Chain of PDE9 (O76083 whole entry): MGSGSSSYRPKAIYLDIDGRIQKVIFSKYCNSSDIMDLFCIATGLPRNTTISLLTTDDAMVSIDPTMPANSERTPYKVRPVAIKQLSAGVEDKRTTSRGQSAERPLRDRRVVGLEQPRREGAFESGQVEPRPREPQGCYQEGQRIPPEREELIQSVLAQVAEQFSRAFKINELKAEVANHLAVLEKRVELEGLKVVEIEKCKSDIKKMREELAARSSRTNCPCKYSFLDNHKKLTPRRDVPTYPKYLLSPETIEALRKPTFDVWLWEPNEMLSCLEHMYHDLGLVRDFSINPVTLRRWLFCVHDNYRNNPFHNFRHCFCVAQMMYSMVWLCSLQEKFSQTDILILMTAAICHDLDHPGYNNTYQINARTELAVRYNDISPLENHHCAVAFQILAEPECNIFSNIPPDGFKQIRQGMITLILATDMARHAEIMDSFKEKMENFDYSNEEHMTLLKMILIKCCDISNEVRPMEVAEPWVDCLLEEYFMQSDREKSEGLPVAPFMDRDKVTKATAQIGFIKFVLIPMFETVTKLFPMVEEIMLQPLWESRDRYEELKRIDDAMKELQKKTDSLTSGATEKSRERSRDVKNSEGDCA

SMILES | inhibition at 10 µM [1] [%] | IC50 [2] [nM] | IC50 [3] [nM] | IC50 [4] [nM] | IC50 ([1]; printed in the PDE9 inhibition column) [nM] | PDE9 Inhibition at 10 μM (%) [1] [%]
Cn1c(Cc2ccc(-c3cccc(F)n3)cc2)cn2c(C3CCOC3)ncc2c1=O (single isomer, unassigned; isomer 1) [Example 27, 6-(4-(6-fluoropyridin-2-yl)benzyl)-7-methyl-3-(tetrahydrofuran-3-yl)imidazo[1,5-a]pyrazin-8(7H)-one, Isomer 1] | 4 | 57 | 96 | 16 |  | 
Cn1c(Cc2ccc(-c3cccc(C(F)F)n3)cc2)cn2c(C3CCOCC3)ncc2c1=O [Example 15, 6-[[4-[6-(difluoromethyl)-2-pyridyl]phenyl]methyl]-7-methyl-3-tetrahydropyran-4-yl-imidazo[1,5-a]pyrazin-8-one] | 6 | 58 | 87 | 14 |  | 
CC(C)c1ncc2c(=O)n(C)c(Cc3ccc(-c4cccc(F)n4)cc3)cn12 [Example 21, 6-[[4-(6-fluoro-2-pyridyl)phenyl]methyl]-3-isopropyl-7-methyl-imidazo[1,5-a]pyrazin-8-one] | 13 | 36 | 93 | 13 |  | 
CCc1ncc2c(=O)n(C)c(Cc3ccc(-c4cccc(F)n4)cc3)cn12 [Example 23, 3-ethyl-6-(4-(6-fluoropyridin-2-yl)benzyl)-7-methylimidazo[1,5-a]pyrazin-8(7H)-one] | 17 | 176 | 578 | 56 |  | 
CC1OCCC1c1ncc2c(=O)n(C)c(Cc3ccc(-c4cccc(F)n4)cc3)cn12 (single isomer, unassigned; isomer 3) [Example 31, 6-(4-(6-fluoropyridin-2-yl)benzyl)-7-methyl-3-(2-methyltetrahydrofuran-3-yl)imidazo[1,5-a]pyrazin-8(7H)-one, Isomer 3] |  | 18 | 45 | 4 |  | 10
Cn1c(Cc2ccc(-c3cccc(F)n3)cc2)cn2c(CC(F)(F)F)ncc2c1=O [Example 25, 6-(4-(6-fluoropyridin-2-yl)benzyl)-7-methyl-3-(2,2,2-trifluoroethyl)imidazo[1,5-a]pyrazin-8(7H)-one] | 9 | 218 | 400 | 90 |  | 
COc1cccc(-c2ccc(Cc3cn4c(C5CCOCC5)ncc4c(=O)n3C)cc2)n1 [Example 16, 6-[[4-(6-methoxy-2-pyridyl)phenyl]methyl]-7-methyl-3-tetrahydropyran-4-yl-imidazo[1,5-a]pyrazin-8-one] | 7 | 24 | 42 | 4.7 |  | 
COc1ccc(Cn2c(Cc3ccc(-c4ccccn4)cc3)cn3c(C4CCOCC4)ncc3c2=O)cc1 [Example 9, 7-[(4-methoxyphenyl)methyl]-6-[[4-(2-pyridyl)phenyl]methyl]-3-tetrahydropyran-4-yl-imidazo[1,5-a]pyrazin-8-one] | 39 | 0.29 | 0.38 | 0.19 |  | 
CC1OCCC1c1ncc2c(=O)n(C)c(Cc3ccc(-c4cccc(F)n4)cc3)cn12 (single isomer, unassigned; isomer 4) [Example 32, 6-(4-(6-fluoropyridin-2-yl)benzyl)-7-methyl-3-(2-methyltetrahydrofuran-3-yl)imidazo[1,5-a]pyrazin-8(7H)-one, Isomer 4] |  | 5.8 | 9.2 | 1.3 |  | 5
CCCc1ncc2c(=O)n(C)c(Cc3ccc(-c4cccc(F)n4)cc3)cn12 [Example 22, 6-(4-(6-fluoropyridin-2-yl)benzyl)-7-methyl-3-propylimidazo[1,5-a]pyrazin-8(7H)-one] | 2 | 168 | 310 | 40 |  | 
CC1OCCC1c1ncc2c(=O)n(C)c(Cc3ccc(-c4cccc(F)n4)cc3)cn12 (single isomer, unassigned; isomer 2) [Example 30, 6-(4-(6-fluoropyridin-2-yl)benzyl)-7-methyl-3-(2-methyltetrahydrofuran-3-yl)imidazo[1,5-a]pyrazin-8(7H)-one, Isomer 2] |  | 70 | 148 | 71 |  | −2

The remaining lines, values ahead:

inhibition at 10 µM [1] [%] | IC50 [2] [nM] | IC50 [3] [nM] | IC50 [4] [nM] | IC50 ([1]; printed in the PDE9 inhibition column) [nM] | PDE9 Inhibition at 10 μM (%) [1] [%] | SMILES
4 | 160 | 240 | 25 |  |  | Cn1c(Cc2ccc(-c3ccccn3)cc2)cc2c(cnn2C2CCOCC2)c1=O [Example 6, 5-methyl-6-[[4-(2-pyridyl)phenyl]methyl]-1-tetrahydropyran-4-yl-pyrazolo[4,3-c]pyridin-4-one]
17 | 180 | 2100 | 57 |  |  | Cn1c(Cc2ccc(-c3cccc(F)n3)cc2)nc2c(cnn2C2CCOCC2)c1=O [Example 4, 6-[[4-(6-fluoro-2-pyridyl)phenyl]methyl]-5-methyl-1-tetrahydropyran-4-yl-pyrazolo[3,4-d]pyrimidin-4-one]
9 | 117 | 238 | 23 |  |  | Cc1ccccc1-c1ccc(Cc2cn3c(C4CCOCC4)ncc3c(=O)n2C)cc1 [Example 18, 7-methyl-6-[[4-(o-tolyl)phenyl]methyl]-3-tetrahydropyran-4-yl-imidazo[1,5-a]pyrazin-8-one]
14 | 68 | 149 | 16 |  |  | Cn1c(Cc2ccc(-c3ccncn3)cc2)cn2c(C3CCOCC3)ncc2c1=O [Example 26, 7-methyl-6-(4-(pyrimidin-4-yl)benzyl)-3-(tetrahydro-2H-pyran-4-yl)imidazo[1,5-a]pyrazin-8(7H)-one]
18 | 81 | 80 | 14 |  |  | Cc1cccc(-c2ccc(Cc3cn4c(C5CCOCC5)ncc4c(=O)n3C)cc2)n1 [Example 13, 7-methyl-6-[[4-(6-methyl-2-pyridyl)phenyl]methyl]-3-tetrahydropyran-4-yl-imidazo[1,5-a]pyrazin-8-one]
 | 17 | 22 | 6 | 180 |  | O=c1[nH]c(Cc2ccc(-c3ccccn3)cc2)cn2c(C3CCOCC3)ncc12 [Example 10, 6-[[4-(2-pyridyl)phenyl]methyl]-3-tetrahydropyran-4-yl-7H-imidazo[1,5-a]pyrazin-8-one]
4 | 12 | 26 | 3.1 |  |  | CCn1c(Cc2ccc(-c3ccccn3)cc2)cn2c(C3CCOCC3)ncc2c1=O [Example 12, 7-ethyl-6-[[4-(2-pyridyl)phenyl]methyl]-3-tetrahydropyran-4-yl-imidazo[1,5-a]pyrazin-8-one]
14 | 62 | 67 | 5.2 |  |  | Cn1c(Cc2ccc(-c3cccc(F)n3)cc2)cn2c(C3CCOCC3)ncc2c1=O [Example 14, 6-[[4-(6-fluoro-2-pyridyl)phenyl]methyl]-7-methyl-3-tetrahydropyran-4-yl-imidazo[1,5-a]pyrazin-8-one]
10 | 150 | 220 | 32 |  |  | Cc1cccc(-c2ccc(Cc3cc4c(cnn4C4CCOCC4)c(=O)n3C)cc2)n1 [Example 1, 5-methyl-6-[[4-(6-methyl-2-pyridyl)phenyl]methyl]-1-tetrahydropyran-4-yl-pyrazolo[4,3-c]pyridin-4-one]
